Consider twelve molecules from ChEMBL document CHEMBL1136677, “Dermorphin tetrapeptide analogues with 2',6'-dimethylphenylalanine (Dmp) substituted for aromatic amino acids have high mu opioid receptor binding and biological activities” (Bioorg Med Chem Lett, 2003).

Molecules are shown by their SMILES.

The target in experiment [1] is Delta-type opioid receptor (Mus musculus, UniProt P32300). Kind of experiment: Ability to inhibit electrically induced contractions of mouse vas deferens having delta opioid receptors tested in vitro. The experiment is classed as tissue-based.
Experiment [2] concerns the target Delta-type opioid receptor (Rattus norvegicus, UniProt P33533). Put plainly: Ability to displace [3H]-deltorphin II from delta opioid receptor.
Experiment [3] deals with Mu-type opioid receptor (Rattus norvegicus, UniProt P33535). Kind of experiment: Ability to displace [3H]DAMGO from mu opioid receptor.
Experiment [4] concerns the target Mu-type opioid receptor (Cavia porcellus, UniProt P97266). Put plainly: Ability to inhibit electrically induced contractions of guinea pig ileum having mu opioid receptors tested in vitro. The class given is tissue-based.
Experiment [5] concerns the target Delta-type opioid receptor (Rattus norvegicus) (UniProt P33533). Kind of experiment: (§1) Selectivity ratio of binding affinity of delta opioid receptor to mu opioid receptor.
Experiment [6] concerns the target Delta-type opioid receptor (Mus musculus) (UniProt P32300). Put plainly: Selectivity ratio of IC50(MVD) to IC50(GPI) was determined.
The target is the same in experiment [7]. The conditions noted are these: Vas deferens.
Description: Affinity towards delta opioid receptor using CTAP as antagonist in mouse vas deferens
Experiment [8] has the same target. The conditions noted are these: Vas deferens. The source holds these as a separate data set.
Description: Affinity towards delta opioid receptor using N,N(Me)2Dmt-Tic-OH as antagonist in mouse vas deferens
Experiment [9] relates to Mus musculus. Put plainly: Antinociceptive activity in mice after subcutaneous injection in the first phase of formalin test. The conditions noted are these: sc. The class given is functional.
For experiment [10], the target named is Mu-type opioid receptor (Cavia porcellus) (UniProt P97266). Kind of experiment: Affinity towards mu opioid receptor using CTAP as antagonist in guinea pig ileum. The experiment is classed as functional, tissue-based.
Experiment [11] deals with Mus musculus. Put plainly: Antinociceptive activity in mice after subcutaneous injection in the second phase of formalin test. The experiment is classed as functional. The settings on record: sc.
In experiment [12] the target is Prothrombin (Homo sapiens) (UniProt P00734). The experiment is described as §1.

Sequence of Delta-type opioid receptor (Mus musculus) (P32300 whole entry): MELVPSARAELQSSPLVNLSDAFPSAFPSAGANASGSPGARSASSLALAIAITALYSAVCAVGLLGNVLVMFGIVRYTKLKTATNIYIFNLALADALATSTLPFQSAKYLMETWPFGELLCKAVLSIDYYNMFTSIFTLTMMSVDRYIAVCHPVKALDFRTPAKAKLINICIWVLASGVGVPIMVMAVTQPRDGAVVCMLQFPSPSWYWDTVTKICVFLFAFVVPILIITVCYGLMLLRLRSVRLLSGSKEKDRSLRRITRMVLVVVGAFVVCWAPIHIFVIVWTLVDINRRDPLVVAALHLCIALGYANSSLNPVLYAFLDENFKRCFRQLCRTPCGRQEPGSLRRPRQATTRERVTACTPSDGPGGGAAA
Sequence of Delta-type opioid receptor (Mus musculus, UniProt P32300) (P32300 whole entry): as above
Sequence of Mu-type opioid receptor (Cavia porcellus, UniProt P97266) (P97266 whole entry): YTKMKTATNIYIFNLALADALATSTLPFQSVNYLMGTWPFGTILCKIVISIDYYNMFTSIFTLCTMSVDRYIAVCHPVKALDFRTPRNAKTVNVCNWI
Sequence of Mu-type opioid receptor (Cavia porcellus) (P97266 whole entry): as above
Sequence of Mu-type opioid receptor (Rattus norvegicus, UniProt P33535) (P33535 whole entry): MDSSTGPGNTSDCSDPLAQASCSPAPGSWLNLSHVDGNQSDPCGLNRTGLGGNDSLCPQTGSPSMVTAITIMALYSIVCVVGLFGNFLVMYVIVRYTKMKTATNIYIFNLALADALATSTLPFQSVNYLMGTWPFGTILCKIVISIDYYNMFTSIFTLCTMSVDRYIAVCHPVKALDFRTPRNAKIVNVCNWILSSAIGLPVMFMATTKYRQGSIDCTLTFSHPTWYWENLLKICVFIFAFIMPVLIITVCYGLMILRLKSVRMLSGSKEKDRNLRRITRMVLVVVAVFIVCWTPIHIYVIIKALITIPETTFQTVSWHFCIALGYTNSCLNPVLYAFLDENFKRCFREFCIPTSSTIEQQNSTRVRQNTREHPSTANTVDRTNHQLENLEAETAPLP
Sequence of Delta-type opioid receptor (Rattus norvegicus, UniProt P33533) (P33533 whole entry): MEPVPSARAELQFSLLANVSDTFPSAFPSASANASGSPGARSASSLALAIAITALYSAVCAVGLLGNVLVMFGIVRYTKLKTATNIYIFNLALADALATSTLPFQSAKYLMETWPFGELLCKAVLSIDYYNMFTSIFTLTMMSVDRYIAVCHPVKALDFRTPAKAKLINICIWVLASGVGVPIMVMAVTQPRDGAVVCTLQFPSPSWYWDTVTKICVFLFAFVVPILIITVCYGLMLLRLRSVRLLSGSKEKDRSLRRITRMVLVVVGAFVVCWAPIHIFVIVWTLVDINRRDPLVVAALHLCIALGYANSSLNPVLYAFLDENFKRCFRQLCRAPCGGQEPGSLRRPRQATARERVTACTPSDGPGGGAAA
Sequence of Delta-type opioid receptor (Rattus norvegicus) (P33533 whole entry): as above

Consider `NC(=O)CCNC(=O)[C@H](Cc1ccccc1)NC(=O)[C@@H](CCCN=C(N)N)NC(=O)[C@@H](N)Cc1ccccc1`, for which the IC50 is 7140 nM in experiment [1] and 633 nM on Mu-type opioid receptor [4]. In addition, the Ki in experiment [2] is greater than 2820 nM; at Mu-type opioid receptor [3] it was 7.17 nM. The Ratio was greater than 393 in experiment [5] and 11.2 in experiment [6].

As to `CC(C)[C@H](NC(=O)[C@H](CCC(=O)O)NC(=O)[C@H](Cc1ccccc1)NC(=O)[C@H](C)NC(=O)[C@@H](N)Cc1ccc(O)cc1)C(=O)N[C@H](C(=O)NCC(=O)O)C(C)C`, the Ke in [7] was greater than 1000 nM; in experiment [8] it was 0.64 nM.

For `N=C(N)NCCC[C@@H](NC(=O)[C@@H](N)Cc1ccc(O)cc1)C(=O)N[C@@H](Cc1ccccc1)C(=O)NCCC(N)=O`, the IC50 in experiment [1] was 116 nM; against Mu-type opioid receptor [4] it was 5.31 nM. Besides, the Ki in experiment [2] worked out at 482 nM; at Mu-type opioid receptor [3], 0.172 nM.

Take `Cc1cccc(C)c1C[C@H](N)C(=O)N[C@H](CCCN=C(N)N)C(=O)N[C@@H](Cc1ccccc1)C(=O)NCCC(N)=O`: the 50% effective dose (ED50) in the experiment on Mus musculus [9] was 1.95 µmol/kg; in the experiment on Mus musculus [11] it was 1.53 µmol/kg. Besides, the results for the IC50 (in [1]; against Mu-type opioid receptor [4]) were 188 nM and 9.88 nM, respectively. Besides, the Ki is 2570 nM in experiment [2] and 0.0623 nM at Mu-type opioid receptor [3]. The results for the Ke in experiment [10], in experiment [7] and in experiment [8] were 25.1 nM, 13.4 nM and greater than 1000 nM, respectively. Also, the figures for the Ratio in experiment [5] and in [6] were 41300 and 19, respectively.

Turning to `Cc1cccc(C)c1C[C@@H](NC(=O)[C@@H](CCCN=C(N)N)NC(=O)[C@@H](N)Cc1ccc(O)cc1)C(=O)NCCC(N)=O`, the IC50 is 305 nM in [1] and 19.8 nM against Mu-type opioid receptor [4]. Further, the Ki is greater than 2820 nM in [2] and 0.0618 nM at Mu-type opioid receptor [3]. Further, the results for the Ratio in [5] and in experiment [6] were greater than 45700 and 15.4, respectively.

In the case of `Cc1cccc(C)c1C[C@H](NC(=O)[C@@H](CCCN=C(N)N)NC(=O)[C@@H](N)Cc1c(C)cccc1C)C(=O)NCCC(N)=O`, the IC50 in [1] stood at 50.1 nM; at Mu-type opioid receptor [4], 2.76 nM. In addition, the results for the Ki (in [2]; on Mu-type opioid receptor [3]) were 1690 nM and 0.0216 nM, respectively. Further, the values for the Ke in experiment [10], in experiment [7] and in experiment [8] were 21.3 nM, 10.2 nM and greater than 1000 nM, respectively. Further, the Ratio in experiment [5] stood at 78100; in experiment [6] it was 18.2.

Consider `Cc1cc(O)cc(C)c1C[C@H](N)C(=O)N[C@H](CCCN=C(N)N)C(=O)N[C@@H](Cc1ccccc1)C(=O)NCCC(N)=O`, for which the results for the 50% inhibitory concentration (IC50) (in experiment [1]; against Mu-type opioid receptor [4]) were 0.398 nM and 0.034 nM, respectively. In addition, the results for the Ki (in [2]; at Mu-type opioid receptor [3]) were 1.13 nM and 0.00205 nM, respectively. Also, the Ratio in [5] is 551; in experiment [6], 11.7.

For `NC(=O)CCNC(=O)[C@H](Cc1ccccc1)NC(=O)[C@@H](CCCN=C(N)N)NC(=O)[C@@H](N)Cc1ccc(O)cc1`, the ED50 with Mus musculus [9] is 0.628 µmol/kg; with Mus musculus [11], 0.514 µmol/kg. In addition, the results for the Ke in [10], in [7] and in experiment [8] were 26.8 nM, 21.2 nM and greater than 1000 nM, respectively. The Ratio turned out to be 2800 in experiment [5] and 21.8 in experiment [6].

Consider `CN1CC[C@]23c4c5ccc(O)c4O[C@H]2[C@@H](O)C=C[C@H]3[C@H]1C5` [MORPHINE], for which the ED50 with Mus musculus [9] was determined as 3.81 µmol/kg; in the experiment with Mus musculus [11], 7.32 µmol/kg.

Take `Cc1cccc(C)c1C[C@@H](N)C(=O)N[C@H](CCCNC(=N)N)C(=O)N[C@@H](Cc1ccccc1)C(=O)NCCC(N)=O`: the IC50 came out at 1470 nM in [1] and 320 nM against Mu-type opioid receptor [4]. The Ki in experiment [2] is greater than 2820 nM; at Mu-type opioid receptor [3], 7.62 nM.

Take `Cc1cccc(C)c1C[C@@H](N)C(=O)N[C@H](CCCN=C(N)N)C(=O)N[C@@H](Cc1ccccc1)C(=O)NCCC(N)=O`: the Ratio was greater than 370 in [5] and 4.6 in experiment [6].

Consider `Cc1cccc(C)c1C[C@H](NC(=O)[C@@H](CCCN=C(N)N)NC(=O)[C@@H](N)Cc1ccc(O)cc1)C(=O)NCCC(N)=O`, for which the ED50 was determined as 0.0986 µmol/kg in the experiment with Mus musculus [9] and 0.113 µmol/kg with Mus musculus [11]. Besides, the IC50 was 27.9 nM in experiment [1] and 1.67 nM against Mu-type opioid receptor [4]. Further, the Ki in [2] is 544 nM; on Mu-type opioid receptor [3] it was 0.035 nM. Further, the figures for the Ke in experiment [10], in experiment [7] and in experiment [8] were 22.7 nM, 11.4 nM and greater than 1000 nM, respectively. Further, the values for the Ratio in experiment [12] and in experiment [6] were 15500 and 16.7, respectively.
